According to patent US20130109687A1, “METHODS OF TREATING HIV INFECTION: INHIBITION OF DNA DEPENDENT PROTEIN KINASE” (priority 2010, published 2013):
Entries after “also recorded” stand apart in the source; their conditions may differ. Peptide text beside a SMILES is read from it. * marks the point of attachment. Cbz = O=C(OCc1ccccc1)*; CH2F = FC*

Assays:
293T cells = assay: VPR-induced apoptosis and cell cycle analysis by propidium iodide DNA content in 293T cells; assay type: cell-based, human
Method: (§1) Cell cycle analysis in 293T cells was performed on ethanol-fixed cells using the propidium iodide staining method after transduction with lentiviral vectors encoding wild type or mutant VPR. Cell debris was excluded from the analysis, and the DNA content of cells below the diploid level, sub-G1, was used to calculate the apoptosis rate. The association of VPR with VprBP and DNA-PK was determined by immunoprecipitation. Briefly, whole cell extracts were prepared in lysis buffer and incubated with the relevant antibodies, concentrated on Protein G beads, and analyzed by Western blotting. HIV-1 viral stocks were generated by transfecting 293T cells with the HIV-189.6 wild type and IVPR plasmids followed by propagation in CEMx174 cells as previously described^16. CD4^+ T cells were isolated from elutriated lymphocytes using magnetic bead purification, activated and infected as described in Methods. For siRNA transfections in CD4^+ lymphocytes, isolated CD4 cells were transduced by nucleofection. In some experiments, cells were treated with either DMSO or the DNA-PK inhibitor NU7026 (Sigma) during the infection period. Viability of infected primary CD4^+ T cells was performed using combined staining with Annexin V-APC (BD Pharmigen) and the amine reactive viability dye ViVid (Invitrogen). Flow cytometry was performed with a LSR II cell analyzer.
CEMX174 cells were cultured in RPMI with 10% FBS and antibiotics (penicillin and streptomycin). HEK293T cells were cultured in DMEM supplemented with 10% FBS and antibiotics (penicillin and streptomycin). For immunoprecipitation experiments HEK293T cells were transfected with 3 μg of either […] or 102-HAVpr Q65R using the LipofectAMINE 2000 reagent (Life Technologies, Inc.). For cell cycle analysis HEK293T cells were harvested, washed with ice-cold PBS and resuspended in 70% cold ethanol while vortexing. The cells were incubated at −20° C. overnight, washed once with PBS and resuspended in PBS containing 25 μg/ml propidium iodide and 100 μg/ml RNaseA for 15 minutes at 25° C. Stained cells were then analyzed by flow cytometry.
Lentivirus vectors were produced by transiently transfecting HEK293T cells using the calcium phosphate method. […]. Virus supernatants were collected at 48 h post transfection. The harvested supernatants were cleared by centrifugation, concentrated and frozen at −80° C. for storage.

DNA-PK = target: T1, DNA-PK (Homo sapiens, UniProt P78527); assay: Western blot of γH2AX (H2AX phosphorylation) in cells transfected with VPR-encoding plasmid; assay type: cell-based; conditions: indicated concentrations of inhibitor (FIG. 2d)
T1 construct: endogenous in cells; host or cells: HEK293T (inferred; only VPR is transfected, DNA-PK is the cells' own)
Method: FIG. 2d, VPR induction of DNA-PKcs autophosphorylation (left, lanes 1,2) and Western blot analysis of γH2AX from cells transfected with a VPR-encoding plasmid and treated with the indicated concentrations of DNA-PK inhibitor NU7026 (right, lanes 3-7). Western blot analysis of autophosphorylated DNA-PKcs was performed using anti-phosphoserine 2056 DNA-PKcs from cells transfected with an empty vector or a VPR-encoding plasmid. Cell lysates were subjected to Western blotting using the indicated antibodies.
Cell extracts for Western blots and immunoprecipitations were made in cell lysis buffer (Cell Signal). Immunoprecipitations were performed overnight at 4° C. using normal rabbit serum, anti-VprBP or anti-DNA-PK polyclonal antibodies (Bethyl Laboratories). Protein G beads (Invitrogen) were then added for 2 h, washed three times with 1× lysis buffer, boiled and loaded onto 4-15% polyacrylamide Tris Glycine gels (BioRad). The primary antibodies used for Western blotting were anti-DNA-PK, anti-VprBP (Bethyl Laboratories), anti-actin (Sigma), anti-γH2AX (Cell Signaling), anti-HA (Santa Cruz Biotechnology), anti-Ku70, and anti-Ku80 (BD Transduction Laboratories).

[1] = system: primary human CD4+ T cells infected with HIV-189.6; assay: Viability (Annexin V / ViVid) of primary CD4+ T cells infected with HIV-189.6; assay type: cell-based; conditions: primary CD4+ lymphocytes, wild type HIV-189.6; NU7026 vs DMSO vehicle; 6 days after infection
Method: as §1, with “For siRNA transfections in CD4^+ lymphocytes, isolated CD4 cells were transduced by nucleofection. In some experiments, cells were treated with either DMSO or the DNA-PK inhibitor NU7026 (Sigma) during the infection period. Viability of infected primary CD4^+ T cells was performed using combined staining with Annexin V-APC (BD Pharmigen) and the amine reactive viability dye ViVid (Invitrogen). Flow cytometry was performed with a LSR II cell analyzer.” left out
CD4^+ T lymphocytes were isolated from elutriated lymphocytes prepared from blood of healthy donors by negative selection with a CD4^+ T-cell isolation kit II (Miltenyi Biotech) according to the manufacturer's instructions. The purity of the isolated CD4^+ T cells was assessed by fluorescence-activated cell sorting (FACS) analysis for CD4 (BD-Pharmingen) and 95% of the cells were CD4^+ upon isolation. […]

HIV-189.6 = assay: Frequency of infection by p24 positivity, flow cytometry; assay type: cell-based, HIV-1; conditions: primary CD4+ lymphocytes, wild type HIV-189.6; NU7026 vs DMSO
Method: Purified, activated CD4^+ T cells were infected 2-3 days after isolation. For nucleofected cells, infection was done 36 h after nucleofection. HIV-1 infection of CD4^+ T lymphocytes was performed in 96-well round-bottomed culture plates by combining 10 μl virus stock with 150 μl CD4^+ T lymphocytes (1.5×10^5 cells). The multiplicity of infection was ˜1.0. CD4^+ T lymphocytes were harvested at the indicated times following exposure to virus.
CD4^+ T lymphocytes were harvested for Annexin V, Vivid and intracellular p24-Gag staining at the indicated times following exposure to virus. In brief, the cells were washed and stained with Annexin V-APC (BD Pharmigen) and Vivid (Invitrogen) for 20 min. Cells were washed once, fixed, and permeabilized with Cytoperm/Cytofix (BD Pharmingen) for 20 min. Cells were then stained for p24 Gag (KC-57 fluorescein isothiocyanate (FITC); Coulter) for 30 min and washed once in 1× Perm/wash buffer (BD Pharmingen). Flow cytometry was performed with an LSR II cell analyzer (Becton Dickinson), and data analysis was performed with FlowJo software (Tree Star, Inc.)

[2] = 293T cells transduced with VPR lentiviral vector, NU7026 10 μM vs DMSO, 72 h after transduction
[3] = 293T cells transduced with lentiviral vector encoding wild type VPR, 100 μM Z-VAD-fmk vs DMSO

| Compound | G2/M cell cycle arrest (293T cells; [2]) | VPR-induced apoptosis (293T cells; [2]) | VPR induced H2AX phosphorylation (DNA-PK) | direct cell killing by the virus (cell death following HIV infection) [1] | frequency of infection, p24 positivity (HIV-189.6) | G2/M blockade (293T cells; [3]) | VPR-induced apoptosis (293T cells; [3]) |
| --- | --- | --- | --- | --- | --- | --- | --- |
| O=c1cc(N2CCOCC2)oc2c1ccc1ccccc12 [NU7026] | without diminishing | alleviated | diminished by this DNA-PK inhibitor in a dose-dependent manner | profoundly diminished; also recorded: substantial reduction | remained unchanged | – | – |
| COC(=O)C[C@H](NC(=O)[C@H](C)NC(=O)[C@@H](NC(=O)OCc1ccccc1)C(C)C)C(=O)CF [zVAD-fmk] (Cbz-Val-Ala-Asp(OMe)-CH2F) | – | – | – | – | – | did not reverse | significantly reduced |
